Read-outs that look alike come from different tables or passages of the source.
How the values were obtained:
[1] = biological target: Mcl-1/Bim interaction (recombinant human Mcl-1 residues 171-327) (Homo sapiens (Human), UniProt Q07820); assay: Cell Free Mcl-1:Bim Affinity Assay (Mcl-1 HTRF); type: binding; conditions: TR-FRET, 0.1 nM Mcl-1(171-327), 0.05 nM biotin-Bim(51-76)
Experimental: Cell Free Mcl-1:Bim Affinity Assay (Mcl-1 HTRF)
The inhibition of the Mcl-1/Bim interaction was measured using a time-resolved fluorescence resonance energy transfer (TR-FRET) assay. The recombinant human Mcl-1 (C-terminally 6×His tagged Mcl-1 containing residues 171-327) was generated at Amgen Inc (Thousand Oaks, Calif.). A biotinylated peptide derived from human Bim (residues 51-76) was purchased from CPC Scientific (San Jose, Calif.). The TR-FRET assay was conducted in a 384-well white OptiPlate™ (PerkinElmer, Waltham, Mass.) in a total volume of 40 μL. The reaction mixture contained 0.1 nM Mcl-1(171-327), 0.05 nM biotin-Bim(51-76), 0.05 nM LANCES Eu-W1024 Anti-6×His (PerkinElmer), 0.072 nM Streptavidin-Xlent (Cisbio, Bedford, Mass.), and serially diluted test compounds in the binding buffer of 20 mM Hepes, pH 7.5, 150 mM NaCl, 0.016 mM Brij®35, and 1 mM dithiothreitol. Test compounds were pre-incubated with Mcl-1(171-327) and biotin-Bim (51-76) for 60 min before addition of the detection mixture (LANCE® Eu-W1024 Anti-6×His and Streptavidin-Xlent). The reaction plates were further incubated overnight and then were read on an Envision® multimode reader (PerkinElmer). Fluorescence signals were measured at 620 nm (40-nm bandwidth) and 665 nm (7.5-nm bandwidth) with a 60 μs delay after excitation at 320 nm (75-nm bandwidth). The signal ratio at 665/620 nm corresponded to the Mcl-1/Bim interaction and was used in all data analyses. The IC50 values of test compounds were determined from duplicate data by analyzing competition curves using a four-parameter sigmoidal model in GraphPad Prism (GraphPad Software, San Diego, Calif.) or in Genedata Screener® (Genedata, Basel, Switzerland).

[2] = test system: OPM-2 human multiple myeloma cell line; assay: Cell Viability Assay (OPM-2 10 FBS); type: cell-based; conditions: OPM-2 cells, CellTiter-Glo, read-out: OPM-2 10% FBS IC50 IP
Experimental: Cell Viability Assay (OPM-2 10 FBS)
The human multiple myeloma cell line, OPM-2, was cultured in complete growth medium containing RPMI 1640 and 10% fetal bovine serum (FBS). Cells were seeded into 384-well plates at 3000 cells/well density in complete growth medium containing 10% FBS, and incubated for 16 h with serially diluted test compounds in a 37° C. incubator with 5% CO2. Cell viability was tested using CellTiter-Glo® assay (Promega, Madison, Wis.) according to the manufacturer recommendations. Luminescence was determined using an EnVision® Multilabel plate reader 25 min after the addition of detection reagent. IC50 values were then calculated with Xlfit using a logistical 4-parameter fit model in GraphPad Prism (GraphPad Software, San Diego, Calif.) or in Genedata Screener® (Genedata, Basel, Switzerland).

Sequence of Mcl-1/Bim interaction (recombinant human Mcl-1 residues 171-327) (Q07820 171-327): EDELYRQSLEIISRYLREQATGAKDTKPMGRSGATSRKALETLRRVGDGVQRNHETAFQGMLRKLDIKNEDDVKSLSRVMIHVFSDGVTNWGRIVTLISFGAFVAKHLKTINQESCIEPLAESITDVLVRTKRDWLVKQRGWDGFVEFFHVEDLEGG

IC50 [1] [nM]	IC50 ([2]; Homo sapiens, OPM-2, 16 h) [nM]	IC50 ([2]; 16 h) [nM]	SMILES
0.107	–	939	C[C@@H]1[C@@H](C)CCC[C@H](C(=O)O)[C@@H]2CC[C@H]2CN2C[C@@]3(CCCc4cc(Cl)ccc43)COc3ccc(cc32)C(=O)NS1(=O)=O (single isomer, unassigned) [Example 52]
0.843	–	1860	C[C@H]([C@H]1CCC[C@H](C)[C@@H](C)S(=O)(=O)NC(=O)c2ccc3c(c2)N(C[C@@H]2CC[C@H]21)C[C@@]1(CCCc2cc(Cl)ccc21)CO3)N1CCOCC1 (single isomer, unassigned) [Example 70]
0.676	–	7130	CC[C@@H]1CCCC[C@H](CO)[C@@H]2CC[C@H]2CN2C[C@@]3(CCCc4cc(Cl)ccc43)COc3ccc(cc32)C(=O)NS1(=O)=O (single isomer, unassigned) [Example 85]
3.43	–	5840	C[C@@H]1CS(=O)(=O)NC(=O)c2ccc3c(c2)N(C[C@@H]2CC[C@H]2[C@@H](CO)CC[C@@H]1C)C[C@@]1(CCCc2cc(Cl)ccc21)CO3 (single isomer, unassigned) [Example 84]
0.938	–	1670	C[C@@H]1[C@@H](C)CCC[C@H]([C@H](O)C2CCN(C)CC2)[C@@H]2CC[C@H]2CN2C[C@@]3(CCCc4cc(Cl)ccc43)COc3ccc(cc32)C(=O)NS1(=O)=O (single isomer, unassigned) [Example 68]
0.377	–	778	CC[C@@H](O)[C@@H]1/C=C/C[C@H](C)[C@@H](C)S(=O)(=O)NC(=O)c2ccc3c(c2)N(C[C@@H]2CC[C@H]21)C[C@@]1(CCCc2cc(Cl)ccc21)CO3 (single isomer, unassigned) [Example 49]
11.4	–	> 33300	C[C@@H]1[C@@H](C)CCC[C@@H]([C@@H](O)c2ccccc2)[C@@H]2CC[C@H]2CN2C[C@@]3(CCCc4cc(Cl)ccc43)COc3ccc(cc32)C(=O)NS1(=O)=O (single isomer, unassigned) [Example 88]
0.923	–	785	C[C@@H]1[C@@H](C)CCC[C@H](CN2CC3(CCCN3C)C2)[C@@H]2CC[C@H]2CN2C[C@@]3(CCCc4cc(Cl)ccc43)COc3ccc(cc32)C(=O)NS1(=O)=O (single isomer, unassigned) [Example 50]
7.29	–	1600	C[C@@H]1[C@@H](C)CCC[C@@H]([C@H](O)C(F)(F)F)[C@@H]2CC[C@H]2CN2C[C@@]3(CCCc4cc(Cl)ccc43)COc3ccc(cc32)C(=O)NS1(=O)=O (single isomer, unassigned) [Example 66]

The next lines start with the compound.

SMILES	IC50 [1] [nM]	IC50 ([2]; Homo sapiens, OPM-2, 16 h) [nM]	IC50 ([2]; 16 h) [nM]
COCCN1CCCN(C[C@H]2CCC[C@H](C)[C@@H](C)S(=O)(=O)NC(=O)c3ccc4c(c3)N(C[C@@H]3CC[C@@H]23)C[C@@]2(CCCc3cc(Cl)ccc32)CO4)CC1=O (stereo in doubt) [Example 42]	0.408	593	–
C[C@@H]1[C@@H](C)CCC[C@H](CN2CCN3CCOC[C@@H]3C2)[C@@H]2CC[C@H]2CN2C[C@@]3(CCCc4cc(Cl)ccc43)COc3ccc(cc32)C(=O)NS1(=O)=O (stereo in doubt) [Example 32]	0.493	–	380
CC(=O)N1CCN2CCN(C[C@H]3CCC[C@H](C)[C@@H](C)S(=O)(=O)NC(=O)c4ccc5c(c4)N(C[C@@H]4CC[C@@H]34)C[C@@]3(CCCc4cc(Cl)ccc43)CO5)C[C@H]2C1 (single isomer, unassigned) [Example 35]	0.05	–	421
COCCN1CCN(C[C@H]2CCC[C@H](C)[C@@H](C)S(=O)(=O)NC(=O)c3ccc4c(c3)N(C[C@@H]3CC[C@@H]23)C[C@@]2(CCCc3cc(Cl)ccc32)CO4)CC1=O (single isomer, unassigned) [Example 7]	0.181	–	180
C[C@@H]1[C@@H](C)CCC[C@H](CN2CC(C)(N(C)C)C2)[C@@H]2CC[C@H]2CN2C[C@@]3(CCCc4cc(Cl)ccc43)COc3ccc(cc32)C(=O)NS1(=O)=O (single isomer, unassigned) [Example 17]	0.881	284	–
C[C@@H]1[C@@H](C)CCC[C@H](CO)[C@@H]2CC[C@H]2CN2C[C@@]3(CCCc4cc(Cl)ccc43)COc3ccc(cc32)C(=O)NS1(=O)=O (single isomer, unassigned) [Example 23]	0.182	–	305
C[C@@H]1[C@@H](C)CCC[C@H](CN2CCN3CCN(C)C[C@@H]3C2)[C@@H]2CC[C@H]2CN2C[C@@]3(CCCc4cc(Cl)ccc43)COc3ccc(cc32)C(=O)NS1(=O)=O (single isomer, unassigned) [Example 19]	0.532	–	303
C[C@@H]1[C@@H](C)CCC[C@H](CN2CCN3CCN(S(C)(=O)=O)C[C@@H]3C2)[C@@H]2CC[C@H]2CN2C[C@@]3(CCCc4cc(Cl)ccc43)COc3ccc(cc32)C(=O)NS1(=O)=O (stereo in doubt) [Example 30]	0.516	–	370
C[C@@H]1[C@@H](C)CCC[C@H](CN2CCN3CCN(C)C[C@@H]3C2)[C@@H]2CC[C@H]2CN2C[C@@]3(CCCc4cc(Cl)ccc43)COc3ccc(cc32)C(=O)NS1(=O)=O (single isomer, unassigned) [Example 6]	0.353	–	177
CC(=O)N1CCN2CCN(C[C@H]3CCC[C@H](C)[C@@H](C)S(=O)(=O)NC(=O)c4ccc5c(c4)N(C[C@@H]4CC[C@@H]34)C[C@@]3(CCCc4cc(Cl)ccc43)CO5)C[C@H]2C1 (stereo in doubt) [Example 25]	0.252	–	329
C[C@@H]1[C@@H](C)CCC[C@H](CN2CCN3CCOC[C@H]3C2)[C@@H]2CC[C@H]2CN2C[C@@]3(CCCc4cc(Cl)ccc43)COc3ccc(cc32)C(=O)NS1(=O)=O (stereo in doubt) [Example 14]	0.291	268	–
C[C@@H]1[C@@H](C)CCC[C@H]([C@@H](C)O)[C@@H]2CC[C@H]2CN2C[C@@]3(CCCc4cc(Cl)ccc43)COc3ccc(cc32)C(=O)NS1(=O)=O (single isomer, unassigned) [Example 40]	0.822	–	564
C[C@@H]1[C@@H](C)CCC[C@H]([C@@H](C)O)[C@@H]2CC[C@H]2CN2C[C@@]3(CCCc4cc(Cl)ccc43)COc3ccc(cc32)C(=O)NS1(=O)=O (single isomer, unassigned) [Example 74]	3.67	–	2040
COCCN1CCN(C[C@H]2CCC[C@H](C)[C@@H](C)S(=O)(=O)NC(=O)c3ccc4c(c3)N(C[C@@H]3CC[C@@H]23)C[C@@]2(CCCc3cc(Cl)ccc32)CO4)CC1=O (stereo in doubt) [Example 3]	0.257	166	–
COCCN1CCN(C[C@H]2CCC[C@H](C)[C@@H](C)S(=O)(=O)NC(=O)c3ccc4c(c3)N(C[C@@H]3CC[C@@H]23)C[C@@]2(CCCc3cc(Cl)ccc32)CO4)CC1 (single isomer, unassigned) [Example 12]	0.542	–	254
C[C@@H]1[C@@H](C)CCC[C@H](CO)[C@@H]2CC[C@H]2CN2C[C@@]3(CCCc4cc(Cl)ccc43)COc3ccc(cc32)C(=O)NS1(=O)=O (single isomer, unassigned) [Example 63]	0.997	–	1460
C[C@@H]1[C@@H](C)CCC[C@H](CC(=O)N(C)C)[C@@H]2CC[C@H]2CN2C[C@@]3(CCCc4cc(Cl)ccc43)COc3ccc(cc32)C(=O)NS1(=O)=O (stereo in doubt) [Example 28]	0.287	364	–
COCCNC(=O)[C@H]1CCC[C@H](C)[C@@H](C)S(=O)(=O)NC(=O)c2ccc3c(c2)N(C[C@@H]2CC[C@H]21)C[C@@]1(CCCc2cc(Cl)ccc21)CO3 (single isomer, unassigned) [Example 11]	0.237	242	–

From patent US11279712B2, “Macrocyclic compounds that inhibit MCL-1 protein” (AMGEN INC., priority 2017, dated 2022)
